The assay relates to LPS-induced release of TNFα from PBMCs from healthy donors. Nature of the assay: ELISA-based TNFα release assay, PBMCs from healthy donors. The note with it: Homo sapiens, PBMC; recombinant murine antibodies 1 μg/ml; Batimastat 10 μM; LPS 50 ng/ml, 2 hours. The assay is classed as cell-based. The protocol: In the following study, ELISA-based TNFα release assays were performed to analyze the inhibitory effects of the antibodies of the present disclosure on LPS-induced release of endogenous TNFα from primary human material obtained from healthy donors using peripheral blood mononuclear cells (PBMCs).
In brief, on day 1, Nunc black MaxiSorp® 96-well plates (Thermo Fisher Scientific, USA) were coated overnight with 100 μl per well of mouse anti-human TNFα capture antibody (provided as part of the DuoSet ELISA kit) at 4 μg/ml TBS at 4° C. On day 2, the capture antibody solution was removed and MaxiSorp® plates were blocked with 300 μl per well of TBS, 1% BSA at room temperature for 3 hours. […] Using an infinite M1000 (Tecan Group, Switzerland) microplate reader, the fluorescence of each well was collected at an excitation wavelength of 435 nm and an emission wavelength of 555 nm.
(In general: In an ELISA, binding on a coated surface is turned into a signal by an enzyme label.)

Turning to `CNC(=O)[C@H](Cc1ccccc1)NC(=O)[C@H](CC(C)C)[C@H](CSc1cccs1)C(=O)NO` [Batimastat], the inhibition (as a rule, the share of the control response that was lost under treatment) at 10 µM came out at 99.6%.

Source of the values: US20240174744A1, “METHODS OF TREATMENT USING PROTEIN BINDERS TO IRHOM2 EPITOPES” (SCIRHOM GMBH, priority 2021, published 2024).
